# Experimental data reported in patent US20260083698A1, “Synergistic Stimulation of Mucociliary Clearance to Treat Mucus Obstruction in Cystic Fibrosis and Other Muco-Obstructive Disorders” (The Board of Trustees of the Leland Stanford Junior …, priority 2022, published 2026).
# Tested on: pig tracheal mucosa
# Experiment: Short circuit current (Isc) and conductance, Ussing chamber, pig
# Settings: WT pigs; 30 min single agonist then 30 min combined
# Excerpt: FIG. 4. Combined agonists inhibit sodium absorption and stimulate anion secretion by surface epithelia. (A) Cartoon of two electrogenic, ion transport pathways across airway apical epithelium: anion secretion increases surface fluid, Na+ absorption decreases surface fluid. The two pathways have opposite effects on fluid depth, but additive effects on short circuit current (Isc) because of their opposite valence and transport directions. (B) Raw trace of Isc across pig tracheal epithelium using Chart 4 software. After reaching a stable, unstimulated Isc (here, >2 h post-mounting), 10 μM forskolin, 0.3 μM carbachol, 10 μM benzamil, 20 μM benzopyrimido-pyrrolo-oxazinedione (BPO-27) and 200 μM niflumic acid were sequentially added at times shown. (C, D) Pig tracheal mucosa: averaged Δ Isc plots over time in response to (C) forskolin alone followed by forskolin+carbachol and (D) reversed order of agonist addition. (E & F) Ferret tracheal mucosa: averaged A Isc plots with same protocol as for pigs. Pig traces (C, D) are based on 10-12 experiments with tissues from 6 to 7 pigs. Ferret traces (E, F) are from 7 experiments with tissues from 5 ferrets.
# Combined agonists stimulate epithelial surface anion secretion and inhibit Na^+ absorption. The surface epithelia also modify ASL. FIG. 4A is a cartoon of the main ion flows controlling ASL depth: anion-mediated fluid secretion increases, and Na^+-mediated fluid absorption decreases ASL depth. It was hypothesized that the combined agonists increase ASL depth and thus MCCV by stimulating secretion and inhibiting absorption (see also FIG. 6). […] With no counterbalancing absorption ASL depth is predicted to increase (dotted gold line in FIG. 6A) unless MCCV increases.
# Inhibiting Na+ absorption would increase net fluid accumulation on the surface. […]
# Electrophysiology. […] Total tissue conductance was calculated by applying Ohm's law to the Isc deflection resulting from a 1 mV pulse across the tissues every 20 s during the experiment. […]
smiles,measurement,value
C[N+](C)(C)CCOC(N)=O [carbachol],"ΔIsc, summary plots",decreased directly or after a transient increase
